For the first assay, the target named is T1, HDM2 (Homo sapiens, UniProt Q00987).
T1 construct: Thioredoxin (N); made in house; host or cells: E. coli BL21(DE3)Rosetta (pET32a)
T1 sequence (Q00987 17-125): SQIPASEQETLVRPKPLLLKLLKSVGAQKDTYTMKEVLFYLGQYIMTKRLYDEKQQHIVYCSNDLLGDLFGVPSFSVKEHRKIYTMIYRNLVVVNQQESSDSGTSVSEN
The experiment in a line: HDM2 FRET assay (inhibition of p53 peptide binding to HDM2). To be noted: Table 1, printed in the FRET IC50 column; at 1000 nM compound. An excerpt:
Methods: An HDM2 FRET assay was developed to assess the compounds' inhibitory activity towards binding of p53 protein. A truncated version of HDM2 with residues 17 to 125 (containing p53 binding surface, Science (1994) 265, 346-355), with N-terminal His and Thioredoxin tag was generated in pET32a expression vector and expressed in E. coli strain BL21(DE3)Rosetta. Protein was purified using Ni-affinity chromatography, followed by size exclusion chromatography using Superdex 75 26/60 column. To assess inhibition of p53 binding to HDM2, a FITC labeled 8-mer peptide (sequence: Ac-Phe-Arg-Dpr-Ac6c-(6-Br)Trp-Glu-Glu-Leu-NH2; Anal Biochem. 2004 Aug. 1; 331(1):138-46) with strong affinity towards p53 binding pocket of HDM2 was used. The HDM2 assay buffer contained 1× Phosphate Buffered Saline (Invitrogen, Cat#14190), 0.01% BSA (Jackson ImmunoResearch, Cat#001-000-162), 0.01% Tween-20. In the 1× assay buffer recombinant HDM2 protein, peptide and Lumi4-Tb Cryptate-conjugate mouse anti-6×HIS antibody (cisbio, Cat#Tb61HISTLB) were added and transferred to ProxiPlate PLUS (PerkinElmer, Cat#6008269), containing compounds so that final DMSO concentration is 0.1%. Final concentrations of reagents in the assay wells are 0.5 nM HDM2, 0.25 nM anti HIS (Tb label) antibody and 3 nM peptide. After two hour incubation at room temperature in a humidified chamber plates were read on EnVision plate reader with the following settings: excitation: UV, […], two emission filters: 520 nm and 495 nm respectively. Ratio of em520/em495 was used to calculate % inhibition and to obtain IC50 with 4-parameter logistic equation.
IC50 DETERMINATIONS: Dose-response curves were plotted from the inhibition data, from 10 point serial dilutions of inhibitory compounds. Concentration of compound was plotted against em520/Cem495 ratio signal. To generate IC50 values, the dose-response curves were fitted to a standard sigmoidal curve and IC50 values were derived by nonlinear regression analysis. IC50 values in the above table are rounded to the nearest integer.
As to `CC1CCCN(c2nc(-c3noc(=O)[nH]3)nc3ncn(C[C@H]4CC[C@H](C)CC4)c23)C1` (stereo partly drawn) [Example 1.11, 3-{7-[(trans-4-methylcyclohexyl)methyl]-6-(3-methylpiperidin-1-yl)-7H-purin-2-yl}-1,2,4-oxadiazol-5(4H)-one], the inhibition at 1 µM was 43%.
The molecule `COc1cccc(Oc2nc(-c3noc(=O)[nH]3)nc3ncn(C[C@H]4CC[C@H](C)CC4)c23)c1` [Example 1.9, 3-{6-(3-methoxyphenoxy)-7-[(trans-4-methylcyclohexyl)methyl]-7H-purin-2-yl}-1,2,4-oxadiazol-5(4H)-one] displayed an inhibition at 1 µM of 39%.
Regarding `C[C@H]1CC[C@H](Cn2cnc3nc(-c4noc(=O)[nH]4)nc(N4CCCC(C(F)(F)F)C4)c32)CC1` (stereo partly drawn) [Example 1.10, 3-{7-[(trans-4-methylcyclohexyl)methyl]-6-[3-(trifluoromethyl)piperidin-1-yl]-7H-purin-2-yl}-1,2,4-oxadiazol-5(4H)-one], the inhibition at 1 µM was determined as 37%.

The same assay, now with this note: Table 1; truncated HDM2 residues 17 to 125, 0.5 nM HDM2, 3 nM FITC labeled 8-mer peptide, two hour incubation.
Consider `C[C@@H](Nc1nc(C(=O)O)nc2ncn(Cc3cc4ccccc4s3)c12)C1CC1` [Example 1.8, 7-(1-benzothiophen-2-ylmethyl)-6-{[(1R)-1-cyclopropylethyl]amino}-7H-purine-2-carboxylic acid], for which the IC50 stood at 2420 nM.
With `C[C@@H](Nc1nc(-c2nc(=O)n(C)[nH]2)nc2ncn(C[C@H]3CC[C@H](C)CC3)c12)C1CCC1` [Example 1.3, 5-(6-{[(1R)-1-cyclobutylethyl]amino}-7-[(trans-4-methylcyclohexyl)methyl]-7H-purin-2-yl)-2-methyl-1,2-dihydro-3H-1,2,4-triazol-3-one], the IC50 turned out to be 71.1 nM.
For the molecule `C[C@@H](Nc1nc(C(=O)O)nc2ncn(Cc3ccc(C(F)(F)F)cc3)c12)C1CCC1` [Example 1.13, 6-{[(1R)-1-cyclobutylethyl]amino}-7-[4-(trifluoromethyl)benzyl]-7H-purine-2-carboxylic acid], the IC50 came out at 81.6 nM.
The molecule `C[C@@H](Nc1nc(C(=O)O)nc2ncn(C[C@H]3CC[C@H](C)CC3)c12)C1CCC1` [Example 1.2, 6-{[(1R)-1-cyclobutylethyl]amino}-7-[(trans-4-methylcyclohexyl)methyl]-7H-purine-2-carboxylic acid] displayed an IC50 of 68.5 nM.
On the same count and under the same terms, with `C[C@@H](Nc1nc(C(=O)O)nc2ncn(Cc3ccc(C(F)(F)F)cc3)c12)C1CC1` [Example 1.1, 6-{[(1R)-1-cyclopropylethyl]amino}-7-[4-(trifluoromethyl)benzyl]-7H-purine-2-carboxylic acid] the figure was 1140 nM.
Take `C[C@H]1CC[C@H](Cn2cnc3nc(-c4noc(=O)[nH]4)nc(Oc4cccc(Cl)c4)c32)CC1` [Example 1.5, 3-{6-(3-chlorophenoxy)-7-[(trans-4-methylcyclohexyl)methyl]-7H-purin-2-yl}-1,2,4-oxadiazol-5(4H)-one]: the IC50 was determined as 392 nM. Against the preceding molecule, the IC50 is about 2.9-fold lower.
Still for that read-out and setting: next, `C[C@@H](Nc1nc(C(=O)NS(=O)(=O)N(C)C)nc2ncn(C[C@H]3CC[C@H](C)CC3)c12)C1CCC1` [Example 1.4, 6-{[(1R)-1-cyclobutylethyl]amino}-N-(dimethylsulfamoyl)-7-[(trans-4-methylcyclohexyl)methyl]-7H-purine-2-carboxamide]: 733 nM.

Still in this assay, the particulars now being: Table 2; truncated HDM2 residues 17 to 125, 0.5 nM HDM2, 3 nM FITC labeled 8-mer peptide, two hour incubation.
`COCOc1cc(Cl)cc(-c2nc(-c3noc(=O)[nH]3)nc3ncn(C[C@H]4CC[C@H](C)CC4)c23)c1` [Example 2.14, 3-{6-[3-chloro-5-(methoxymethoxy)phenyl]-7-[(trans-4-methylcyclohexyl)methyl]-7H-purin-2-yl}-1,2,4-oxadiazol-5(4H)-one] registered an IC50 of 41.7 nM.
`C[C@H]1CC[C@H](Cn2cnc3nc(-c4noc(=O)[nH]4)nc(-c4cc(Cl)ccc4O)c32)CC1` [Example 2.5, 3-{6-(5-chloro-2-hydroxyphenyl)-7-[(trans-4-methylcyclohexyl)methyl]-7H-purin-2-yl}-1,2,4-oxadiazol-5(4H)-one] had an IC50 of 842 nM.
For the molecule `C[C@H]1CC[C@H](Cn2cnc3nc(-c4noc(=O)[nH]4)nc(-c4ccnc(Cl)c4)c32)CC1` [Example 2.15, 3-{6-(2-chloropyridin-4-yl)-7-[(trans-4-methylcyclohexyl)methyl]-7H-purin-2-yl}-1,2,4-oxadiazol-5(4H)-one], the IC50 is 188 nM.
On the same count and under the same terms, with `COC(=O)c1cc(C)cc(-c2nc(-c3noc(=O)[nH]3)nc3ncn(C[C@H]4CC[C@H](C)CC4)c23)c1` [Example 2.19, methyl 3-methyl-5-{7-[(trans-4-methylcyclohexyl)methyl]-2-(5-oxo-4,5-dihydro-1,2,4-oxadiazol-3-yl)-7H-purin-6-yl}benzoate] the figure was 579 nM; with `C[C@H]1CC[C@H](Cn2cnc3nc(-c4noc(=O)[nH]4)nc(-c4cc(O)cc(Cl)c4)c32)CC1` [Example 2.7, 3-{6-(3-chloro-5-hydroxyphenyl)-7-[(trans-4-methylcyclohexyl)methyl]-7H-purin-2-yl}-1,2,4-oxadiazol-5(4H)-one], 111 nM.
Still for that read-out and setting: next, `C[C@H]1CC[C@H](Cn2cnc3nc(-c4noc(=O)[nH]4)nc(-c4cc(Cl)cc(C(F)(F)F)c4)c32)CC1` [Example 2.11, 3-{6-[3-chloro-5-(trifluoromethyl)phenyl]-7-[(trans-4-methylcyclohexyl)methyl]-7H-purin-2-yl}-1,2,4-oxadiazol-5(4H)-one]: 172 nM.
Still for that read-out and setting: next, `C[C@H]1CC[C@H](Cn2cnc3nc(-c4noc(=O)[nH]4)nc(-c4cncc(Cl)c4)c32)CC1` [Example 2.12, 3-{6-(5-chloropyridin-3-yl)-7-[(trans-4-methylcyclohexyl)methyl]-7H-purin-2-yl}-1,2,4-oxadiazol-5(4H)-one]: 86 nM; `Cc1ncc(Cl)cc1-c1nc(-c2noc(=O)[nH]2)nc2ncn(C[C@H]3CC[C@H](C)CC3)c12` [Example 2.21, 3-{6-(5-chloro-2-methylpyridin-3-yl)-7-[(trans-4-methylcyclohexyl)methyl]-7H-purin-2-yl}-1,2,4-oxadiazol-5(4H)-one]: 87.8 nM.
With `C[C@H]1CC[C@H](Cn2cnc3nc(C(=O)O)nc(-c4cncc(Cl)c4)c32)CC1` [Example 2.20, 6-(5-chloropyridin-3-yl)-7-[(trans-4-methylcyclohexyl)methyl]-7H-purine-2-carboxylic acid], the IC50 stood at 213 nM. This IC50 lies about 2.4-fold higher than the previous one.
Same read-out and setting: with `C[C@H]1CC[C@H](Cn2cnc3nc(-c4noc(=O)[nH]4)nc(-c4cccc(Cl)c4)c32)CC1` [Example 2.1, 3-{6-(3-chlorophenyl)-7-[(trans-4-methylcyclohexyl)methyl]-7H-purin-2-yl}-1,2,4-oxadiazol-5(4H)-one] the figure was 53.4 nM.
On the same count and under the same terms, with `CNC(=O)c1cc(Cl)cc(-c2nc(-c3noc(=O)[nH]3)nc3ncn(C[C@H]4CC[C@H](C)CC4)c23)c1` [Example 2.10, 3-chloro-N-methyl-5-{7-[(trans-4-methylcyclohexyl)methyl]-2-(5-oxo-4,5-dihydro-1,2,4-oxadiazol-3-yl)-7H-purin-6-yl}benzamide] the figure was 71.8 nM; with `COCCOc1cc(Cl)cc(-c2nc(-c3n[nH]c(=O)o3)nc3ncn(C[C@H]4CC[C@H](C)CC4)c23)c1` [Example 2.23, 5-{6-[3-chloro-5-(2-methoxyethoxy)phenyl]-7-[(trans-4-methylcyclohexyl)methyl]-7H-purin-2-yl}-1,3,4-oxadiazol-2(3H)-one], 132 nM; with `C[C@H]1CC[C@H](Cn2cnc3nc(-c4noc(=O)[nH]4)nc(-c4ccnc(Cl)c4F)c32)CC1` [Example 2.2, 3-{6-(2-chloro-3-fluoropyridin-4-yl)-7-[(trans-4-methylcyclohexyl)methyl]-7H-purin-2-yl}-1,2,4-oxadiazol-5(4H)-one], 134 nM.

Staying with this assay, now noted: Table 3; truncated HDM2 residues 17 to 125, 0.5 nM HDM2, 3 nM FITC labeled 8-mer peptide, two hour incubation.
The molecule `CCC1CCC(Cn2cnc3nc(C(=O)O)nc(N[C@H](C)C4CCC4)c32)C1` (single isomer, unassigned) [Example 3.13] gave an IC50 of 510 nM.
`C[C@@H](Nc1nc(C(=O)O)nc2ncn(CC3CCC4(CC3)CC4)c12)C1CCC1` [Example 3.4, 6-{[(1R)-1-cyclobutylethyl]amino}-7-(spiro[2.5]oct-6-ylmethyl)-7H-purine-2-carboxylic acid]: the IC50 amounted to 2700 nM.
Still for that read-out and setting: with `CC([C@H]1CC[C@H](C)CC1)n1cnc2nc(-c3noc(=O)[nH]3)nc(N[C@H](C)C3CCC3)c21` (stereo partly drawn) [Example 3.18, 3-(6-{[(1R)-1-cyclobutylethyl]amino}-7-[1-(trans-4-methylcyclohexyl)ethyl]-7H-purin-2-yl)-1,2,4-oxadiazol-5(4H)-one] the figure was 17 nM.

Values taken from patent US9682978B2, “2,6,7 substituted purines as HDM2 inhibitors” (Merck Sharp & Dohme Corp., priority 2013, dated 2017).
